In ChEMBL document CHEMBL5143668, “Modular synthesis of 2,4-diaminoanilines as CNS drug-like non-covalent inhibitors of asparagine endopeptidase” (Bioorg Med Chem, 2022):

Tests used:
[1] = target: T1, Legumain (Homo sapiens) (UniProt Q99538); test: Inhibition of recombinant human Asparagine endopeptidase at 10 uM preincubated for 5 mins followed by Z-Ala-Ala-Asn-AMC substrate addition measured after 2 hrs by microplate reader relative to control
T1 sequence (whole entry): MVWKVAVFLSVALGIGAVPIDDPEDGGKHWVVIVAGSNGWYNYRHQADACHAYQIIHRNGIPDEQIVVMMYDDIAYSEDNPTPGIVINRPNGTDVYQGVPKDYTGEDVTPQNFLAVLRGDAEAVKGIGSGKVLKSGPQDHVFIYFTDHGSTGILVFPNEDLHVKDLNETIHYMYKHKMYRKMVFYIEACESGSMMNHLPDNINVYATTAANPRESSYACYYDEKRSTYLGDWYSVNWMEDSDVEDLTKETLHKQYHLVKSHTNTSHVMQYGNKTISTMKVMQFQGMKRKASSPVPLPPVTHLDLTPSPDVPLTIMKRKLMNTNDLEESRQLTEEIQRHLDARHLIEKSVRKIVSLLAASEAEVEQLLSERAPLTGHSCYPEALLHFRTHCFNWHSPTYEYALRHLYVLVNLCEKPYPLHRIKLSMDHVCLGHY

[2] = target: T2, Legumain (Homo sapiens, UniProt Q99538); test: Inhibition of recombinant human Asparagine endopeptidase preincubated for 5 mins followed by Z-Ala-Ala-Asn-AMC substrate addition measured after 2 hrs by microplate reader
T2 sequence (Q99538 whole entry): T1 sequence (whole entry)

[3] = Dissociation constant, pKa of compound; type: physicochemical
[4] = system: L929; test: Cytotoxicity of mouse L929 cells assessed as reduction in cell viability at 5 to 500 nM measured after 24 hrs by MTT assay; type: toxicity, cell-based; details: l929, 24 h, 0.5 µM, dose 5-500 nM

SMILES	inhibition [1] [%]	IC50 [2] [nM]	pKa [3]	Activity [4]
Nc1ccc(N2CCSCC2)cc1N1CCSCC1	81	757	10.1	–
Nc1ccc(N2CCOCC2)cc1N1CCOCC1	100	844	8.54	Non-Toxic
CCOC(=O)C1CCN(c2cc(N3CCOCC3)ccc2N)CC1	98	89	8.8	Non-Toxic
Nc1ccc(N2CCOCC2)cc1N1CCC[C@H]1CO	48	> 5000	6.96	–
Nc1ccc(N2CCSCC2)cc1Cl	43	> 5000	5.61	–
Nc1ccc(N2CCOCC2)cc1N1CCCC1	42	> 5000	6.96	–
Nc1ccc(N2CCOCC2)cc1N1CCSCC1	89	498	8.54	–
CCOC(=O)C1CCN(c2ccc(N)c(N3CCC(C(=O)OCC)CC3)c2)CC1	53	4830	10.6	Non-Toxic
Nc1ccc(N2CCOCC2)cc1Cl	47	> 5000	4.05	–
Nc1ccc(N2CCOCC2)cc1N1CCC2(CC1)OCCO2	100	547	8.62	–
